According to the supplement of paper PMC10307832:

What was measured:
Assay in all cases: relative viability (nuclei count vs DMSO), 5 days (fraction); higher = more cells survive
COR-L 105 = test system: COR-L 105
Summary of the method: (§1)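 One day after seeding in 1536-well plates, lung cancer cell lines were dosed by pin tool. Dosing was either single-drug or a fixed anchor-drug dose plus five library-drug doses (not always all listed) in √10 steps. After 5 days, nuclei were stained in one fix-and-stain step and counted on 4× images, and relative viability is the nuclei count of treated wells over that of vehicle wells, given as the median of duplicate plates.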

COR-L23 = test system: COR-L23
Summary of the method: as §1

HARA = test system: HARA
Summary of the method: as §1

HCC-15 = test system: HCC-15
Summary of the method: as §1

HOP-62 = test system: HOP-62
Summary of the method: as §1

NCI-H1355 = test system: NCI-H1355
Summary of the method: as §1

NCI-H1395 = test system: NCI-H1395
Summary of the method: as §1

NCI-H1734 = test system: NCI-H1734
Summary of the method: as §1

NCI-H1755 = test system: NCI-H1755
Summary of the method: as §1

NCI-H1792 = test system: NCI-H1792
Summary of the method: as §1

NCI-H1793 = test system: NCI-H1793
Summary of the method: as §1

NCI-H1993 = test system: NCI-H1993
Summary of the method: as §1

NCI-H2009 = test system: NCI-H2009
Summary of the method: as §1

NCI-H2170 = test system: NCI-H2170
Summary of the method: as §1

NCI-H2228 = test system: NCI-H2228
Summary of the method: as §1

NCI-H2347 = test system: NCI-H2347
Summary of the method: as §1

NCI-H358 = test system: NCI-H358
Summary of the method: as §1

NCI-H522 = test system: NCI-H522
Summary of the method: as §1

NCI-H647 = test system: NCI-H647
Summary of the method: as §1

NCI-H838 = test system: NCI-H838
Summary of the method: as §1

SK-MES-1 = test system: SK-MES-1
Summary of the method: as §1

UMC-11 = test system: UMC-11
Summary of the method: as §1

`Nc1ccn([C@@H]2O[C@H](CO)[C@@H](O)[C@@H]2O)c(=O)n1` [Cytarabine] + CC(=O)c1c(C)c2cnc(Nc3ccc(N4CCNCC4)cn3)nc2n(C2CCCC2)c1=O [Palbociclib] (partner 0.5 µM) was tested, and the relative viability (COR-L 105; first compound 0.005 µM) was 0.37, the relative viability (COR-L 105; first compound 0.01581 µM) was 0.37 and the relative viability (COR-L 105; first compound 0.05 µM) was 0.27. For the same compound, the relative viability (COR-L 105; first compound 0.1581 µM) was 0.351, the relative viability (COR-L 105; first compound 0.5 µM) was 0.324 and the relative viability (COR-L23; first compound 0.005 µM) was 0.203. For the same compound, the relative viability (COR-L23; first compound 0.01581 µM) was 0.228, the relative viability (COR-L23; first compound 0.05 µM) was 0.176 and the relative viability (COR-L23; first compound 0.1581 µM) was 0.115. For the same compound, the relative viability (COR-L23; first compound 0.5 µM) was 0.122, the relative viability (HARA; first compound 0.005 µM) was 0.291 and the relative viability (HARA; first compound 0.01581 µM) was 0.212. For the same compound, the relative viability (HARA; first compound 0.05 µM) was 0.221, the relative viability (HARA; first compound 0.1581 µM) was 0.158 and the relative viability (HARA; first compound 0.5 µM) was 0.163. The relative viability (HCC-15; first compound 0.005 µM) was 0.743, the relative viability (HCC-15; first compound 0.01581 µM) was 0.673 and the relative viability (HCC-15; first compound 0.05 µM) was 0.835. The relative viability (HCC-15; first compound 0.1581 µM) was 0.671, the relative viability (HCC-15; first compound 0.5 µM) was 0.514 and the relative viability (HOP-62; first compound 0.005 µM) was 0.395. For the same compound, the relative viability (HOP-62; first compound 0.01581 µM) was 0.297, the relative viability (HOP-62; first compound 0.05 µM) was 0.234 and the relative viability (HOP-62; first compound 0.1581 µM) was 0.139. It also gave a relative viability (HOP-62; first compound 0.5 µM) of 0.155, a relative viability (NCI-H1355; first compound 0.005 µM) of 0.595 and a relative viability (NCI-H1355; first compound 0.01581 µM) of 0.325. For the same compound, the relative viability (NCI-H1355; first compound 0.05 µM) was 0.396, the relative viability (NCI-H1355; first compound 0.1581 µM) was 0.28 and the relative viability (NCI-H1355; first compound 0.5 µM) was 0.232. It also gave a relative viability (NCI-H1395; first compound 0.005 µM) of 0.599, a relative viability (NCI-H1395; first compound 0.01581 µM) of 0.594 and a relative viability (NCI-H1395; first compound 0.05 µM) of 0.492. The relative viability (NCI-H1395; first compound 0.1581 µM) was 0.406, the relative viability (NCI-H1395; first compound 0.5 µM) was 0.345 and the relative viability (NCI-H1734; first compound 0.005 µM) was 0.305. For the same compound, the relative viability (NCI-H1734; first compound 0.01581 µM) was 0.214, the relative viability (NCI-H1734; first compound 0.05 µM) was 0.237 and the relative viability (NCI-H1734; first compound 0.1581 µM) was 0.153. The relative viability (NCI-H1734; first compound 0.5 µM) was 0.155, the relative viability (NCI-H1755; first compound 0.005 µM) was 0.428 and the relative viability (NCI-H1755; first compound 0.01581 µM) was 0.422. The relative viability (NCI-H1755; first compound 0.05 µM) was 0.434, the relative viability (NCI-H1755; first compound 0.1581 µM) was 0.377 and the relative viability (NCI-H1755; first compound 0.5 µM) was 0.414. For the same compound, the relative viability (NCI-H1792; first compound 0.005 µM) was 0.853, the relative viability (NCI-H1792; first compound 0.01581 µM) was 0.655 and the relative viability (NCI-H1792; first compound 0.05 µM) was 0.618. For the same compound, the relative viability (NCI-H1792; first compound 0.1581 µM) was 0.508, the relative viability (NCI-H1792; first compound 0.5 µM) was 0.468 and the relative viability (NCI-H1793; first compound 0.005 µM) was 0.341. The relative viability (NCI-H1793; first compound 0.01581 µM) was 0.267, the relative viability (NCI-H1793; first compound 0.05 µM) was 0.268 and the relative viability (NCI-H1793; first compound 0.1581 µM) was 0.228. For the same compound, the relative viability (NCI-H1793; first compound 0.5 µM) was 0.262, the relative viability (NCI-H1993; first compound 0.005 µM) was 0.714 and the relative viability (NCI-H1993; first compound 0.01581 µM) was 0.489. The relative viability (NCI-H1993; first compound 0.05 µM) was 0.518, the relative viability (NCI-H1993; first compound 0.1581 µM) was 0.507 and the relative viability (NCI-H1993; first compound 0.5 µM) was 0.323. It also gave a relative viability (NCI-H2009; first compound 0.005 µM) of 0.211, a relative viability (NCI-H2009; first compound 0.01581 µM) of 0.192 and a relative viability (NCI-H2009; first compound 0.05 µM) of 0.187. The relative viability (NCI-H2009; first compound 0.1581 µM) was 0.154, the relative viability (NCI-H2009; first compound 0.5 µM) was 0.125 and the relative viability (NCI-H2170; first compound 0.005 µM) was 0.369. It also gave a relative viability (NCI-H2170; first compound 0.01581 µM) of 0.266, a relative viability (NCI-H2170; first compound 0.05 µM) of 0.26 and a relative viability (NCI-H2170; first compound 0.1581 µM) of 0.177. It also gave a relative viability (NCI-H2170; first compound 0.5 µM) of 0.186, a relative viability (NCI-H2228; first compound 0.005 µM) of 0.445 and a relative viability (NCI-H2228; first compound 0.01581 µM) of 0.343. For the same compound, the relative viability (NCI-H2228; first compound 0.05 µM) was 0.215, the relative viability (NCI-H2228; first compound 0.1581 µM) was 0.131 and the relative viability (NCI-H2228; first compound 0.5 µM) was 0.116. For the same compound, the relative viability (NCI-H2347; first compound 0.005 µM) was 0.416, the relative viability (NCI-H2347; first compound 0.01581 µM) was 0.433 and the relative viability (NCI-H2347; first compound 0.05 µM) was 0.413. The relative viability (NCI-H2347; first compound 0.1581 µM) was 0.386, the relative viability (NCI-H2347; first compound 0.5 µM) was 0.407 and the relative viability (NCI-H358; first compound 0.005 µM) was 0.126. The relative viability (NCI-H358; first compound 0.01581 µM) was 0.115, the relative viability (NCI-H358; first compound 0.05 µM) was 0.0934 and the relative viability (NCI-H358; first compound 0.1581 µM) was 0.0712. The relative viability (NCI-H358; first compound 0.5 µM) was 0.0692, the relative viability (NCI-H522; first compound 0.005 µM) was 1.09 and the relative viability (NCI-H522; first compound 0.01581 µM) was 0.872. The relative viability (NCI-H522; first compound 0.05 µM) was 0.824, the relative viability (NCI-H522; first compound 0.1581 µM) was 0.767 and the relative viability (NCI-H522; first compound 0.5 µM) was 0.595. The relative viability (NCI-H647; first compound 0.005 µM) was 0.316, the relative viability (NCI-H647; first compound 0.01581 µM) was 0.206 and the relative viability (NCI-H647; first compound 0.05 µM) was 0.207. For the same compound, the relative viability (NCI-H647; first compound 0.1581 µM) was 0.0933, the relative viability (NCI-H647; first compound 0.5 µM) was 0.0634 and the relative viability (NCI-H838; first compound 0.005 µM) was 0.228. It also gave a relative viability (NCI-H838; first compound 0.01581 µM) of 0.244, a relative viability (NCI-H838; first compound 0.05 µM) of 0.209 and a relative viability (NCI-H838; first compound 0.1581 µM) of 0.2. It also gave a relative viability (NCI-H838; first compound 0.5 µM) of 0.149, a relative viability (SK-MES-1; first compound 0.005 µM) of 0.297 and a relative viability (SK-MES-1; first compound 0.01581 µM) of 0.265. The relative viability (SK-MES-1; first compound 0.05 µM) was 0.253, the relative viability (SK-MES-1; first compound 0.1581 µM) was 0.246 and the relative viability (SK-MES-1; first compound 0.5 µM) was 0.223. The relative viability (UMC-11; first compound 0.005 µM) was 0.371, the relative viability (UMC-11; first compound 0.01581 µM) was 0.304 and the relative viability (UMC-11; first compound 0.05 µM) was 0.263. For the same compound, the relative viability (UMC-11; first compound 0.1581 µM) was 0.236 and the relative viability (UMC-11; first compound 0.5 µM) was 0.219.
